US10988477B2 (Merck Patent GmbH, priority 2018, dated 2021)

Target: GCN2 kinase (Homo sapiens, UniProt Q9P2K8)
Assay: GCN2 enzyme inhibition assay (Transcreener ADP2 fluorescence polarization)
Type: biochemical
Details: Enzyme activity for compounds of Formula IV; Ki(app), 280 μM ATP, 25° C.
Summary of the method: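 Human GCN2 (4 nM) preincubated 10 min with compound (0–8 μM) and 200 μM (RS)7 peptide in Tris-HCl pH 7.5, NaCl, MgCl2, DTT. Reaction started with 280 μM ATP, run 1 h at 25 °C. ADP detected by Transcreener fluorescence polarization. IC50 and Ki(app) fitted by tight-binding algorithm.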

Chain of GCN2 kinase (Q9P2K8 whole entry): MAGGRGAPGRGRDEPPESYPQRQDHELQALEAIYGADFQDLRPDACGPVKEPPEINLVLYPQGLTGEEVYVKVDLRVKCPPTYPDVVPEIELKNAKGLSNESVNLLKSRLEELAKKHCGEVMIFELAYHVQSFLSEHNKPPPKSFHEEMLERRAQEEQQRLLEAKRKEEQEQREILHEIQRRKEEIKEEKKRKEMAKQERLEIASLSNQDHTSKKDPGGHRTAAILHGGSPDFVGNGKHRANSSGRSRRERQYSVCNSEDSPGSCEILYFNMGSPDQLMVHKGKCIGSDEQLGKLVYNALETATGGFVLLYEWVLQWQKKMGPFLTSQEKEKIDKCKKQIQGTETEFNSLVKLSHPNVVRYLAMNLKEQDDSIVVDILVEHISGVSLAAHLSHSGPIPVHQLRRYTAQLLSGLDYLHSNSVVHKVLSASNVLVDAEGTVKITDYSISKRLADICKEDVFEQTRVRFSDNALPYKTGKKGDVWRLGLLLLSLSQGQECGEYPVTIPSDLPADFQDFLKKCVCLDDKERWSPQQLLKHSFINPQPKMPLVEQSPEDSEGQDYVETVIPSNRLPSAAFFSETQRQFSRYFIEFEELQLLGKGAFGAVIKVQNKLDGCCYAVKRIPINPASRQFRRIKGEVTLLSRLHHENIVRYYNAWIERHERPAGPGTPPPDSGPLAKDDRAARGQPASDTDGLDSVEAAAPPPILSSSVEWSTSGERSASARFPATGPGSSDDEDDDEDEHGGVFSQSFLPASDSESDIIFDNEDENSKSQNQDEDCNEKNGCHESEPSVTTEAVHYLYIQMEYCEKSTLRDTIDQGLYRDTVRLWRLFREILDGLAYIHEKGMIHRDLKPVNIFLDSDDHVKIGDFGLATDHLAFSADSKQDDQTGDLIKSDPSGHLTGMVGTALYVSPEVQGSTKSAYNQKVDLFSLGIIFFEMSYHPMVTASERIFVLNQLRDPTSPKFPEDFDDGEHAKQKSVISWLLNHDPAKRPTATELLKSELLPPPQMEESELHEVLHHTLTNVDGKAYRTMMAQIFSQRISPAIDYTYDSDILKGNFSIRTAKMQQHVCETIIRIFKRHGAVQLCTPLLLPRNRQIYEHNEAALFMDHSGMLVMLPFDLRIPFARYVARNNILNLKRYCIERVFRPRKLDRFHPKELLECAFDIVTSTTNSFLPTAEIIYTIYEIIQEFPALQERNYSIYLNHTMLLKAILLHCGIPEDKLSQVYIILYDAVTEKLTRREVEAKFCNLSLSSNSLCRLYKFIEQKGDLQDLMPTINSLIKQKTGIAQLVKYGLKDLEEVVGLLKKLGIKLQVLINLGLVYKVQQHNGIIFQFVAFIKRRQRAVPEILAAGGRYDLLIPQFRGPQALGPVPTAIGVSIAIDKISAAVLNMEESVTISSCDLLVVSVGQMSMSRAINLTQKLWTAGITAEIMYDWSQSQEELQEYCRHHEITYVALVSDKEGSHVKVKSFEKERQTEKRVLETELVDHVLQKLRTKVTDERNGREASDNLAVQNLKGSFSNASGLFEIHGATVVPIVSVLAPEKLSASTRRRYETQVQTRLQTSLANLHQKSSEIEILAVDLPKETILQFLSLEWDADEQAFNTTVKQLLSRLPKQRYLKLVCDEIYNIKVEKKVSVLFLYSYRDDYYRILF

| Compound | Ki [µM] |
| --- | --- |
| CC1CC(C(N)=O)CN(c2ccnc(-c3cnc4cnc(C(F)F)cn34)n2)C1 (mixture of isomers) [IV-107, 1-(2-(6-(Difluoromethyl)imidazo[1,2-a]pyrazin-3-yl)pyrimidin-4-yl)-5-methylpiperidine-3-carboxamide] | 0.01 to 0.1 |
| Cc1nc(C2CCN(c3ccnc(-c4cnc5cnc(C(F)(F)F)cn45)n3)C2)n[nH]1 (stereo not shown) [IV-641, 3-(4-(3-(5-Methyl-1H-1,2,4-triazol-3-yl)pyrrolidin-1-yl)pyrimidin-2-yl)-6-(trifluoromethyl)imidazo[1,2-a]pyrazine] | 0.1 to 1 |
| OCC1CCCCN1c1ccnc(-c2cnc3cnc(C(F)(F)F)cn23)n1 (stereo not shown) [IV-440, (1-(2-(6-(Trifluoromethyl)imidazo[1,2-a]pyrazin-3-yl)pyrimidin-4-yl)piperidin-2-yl)methanol] | 0.1 to 1 |
| CC(=O)N1CCN(c2ccnc(-c3cnc4cnc(-c5ccccc5)cn34)n2)CC1 [IV-297, 1-(4-(2-(6-Phenylimidazo[1,2-a]pyrazin-3-yl)pyrimidin-4-yl)piperazin-1-yl)ethan-1-one] | 0.1 to 1 |
| CC(=O)NC1CCCN(c2ccnc(-c3cnc4cnc(C(F)(F)F)cn34)n2)C1 (stereo not shown) [IV-530, N-(1-(2-(6-(Trifluoromethyl)imidazo[1,2-a]pyrazin-3-yl)pyrimidin-4-yl)piperidin-3-yl)acetamide] | 0.1 to 1 |
| FC(F)(F)c1cn2c(-c3nccc(N4CCCC(c5nn[nH]n5)C4)n3)cnc2cn1 (stereo not shown) [IV-331, 3-(4-(3-(2H-Tetrazol-5-yl)piperidin-1-yl)pyrimidin-2-yl)-6-(trifluoromethyl)imidazo[1,2-a]pyrazine] | 0.1 to 1 |
| FC(F)(F)c1cn2c(-c3nccc(N4CCCC(c5ncon5)C4)n3)cnc2cn1 (stereo not shown) [IV-321, 3-(1-(2-(6-(Trifluoromethyl)imidazo[1,2-a]pyrazin-3-yl)pyrimidin-4-yl)piperidin-3-yl)-1,2,4-oxadiazole] | 0.1 to 1 |
| CCOc1cccc(-c2cn3c(-c4nccc(N5CCN(C(C)=O)CC5)n4)cnc3cn2)c1 [IV-299, 1-(4-(2-(6-(3-Ethoxyphenyl)imidazo[1,2-a]pyrazin-3-yl)pyrimidin-4-yl)piperazin-1-yl)ethan-1-one] | 0.01 to 0.1 |
| O=C(CO)N1CCN(c2ccnc(-c3cnc4cnc(C(F)(F)F)cn34)n2)CC1 [IV-618, 2-Hydroxy-1-(4-(2-(6-(trifluoromethyl)imidazo[1,2-a]pyrazin-3-yl)pyrimidin-4-yl)piperazin-1-yl)ethan-1-one] | 0.1 to 1 |
| O=C(Nc1cn[nH]c1)[C@@H]1CCCN(c2ccnc(-c3cnc4cnc(C(F)(F)F)cn34)n2)C1 [IV-725] | > 1 |
| CC1CN(c2ccnc(-c3cnc4cnc(C(F)(F)F)cn34)n2)CC1N1CCOCC1 (stereo not shown) [IV-569, 4-(4-Methyl-1-(2-(6-(trifluoromethyl)imidazo[1,2-a]pyrazin-3-yl)pyrimidin-4-yl)pyrrolidin-3-yl)morpholine] | 0.1 to 1 |
| CN1C(=O)CO[C@H]2CN(c3ccnc(-c4cnc5cnc(C(F)(F)F)cn45)n3)C[C@@H]21 (single isomer, unassigned) [IV-551] | 0.1 to 1 |
| Fc1n[nH]cc1C1CCCN(c2ccnc(-c3cnc4cnc(C(F)(F)F)cn34)n2)C1 (stereo not shown) [IV-473, 3-(4-(3-(5-Fluoro-1H-pyrazol-4-yl)piperidin-1-yl)pyrimidin-2-yl)-6-(trifluoromethyl)imidazo[1,2-a]pyrazine] | < 0.01 |
| CC1CCCN(c2ccnc(-c3cnc4cnc(C(N)=O)cn34)n2)C1C (stereo not shown) [IV-264, 3-(4-(2,3-Dimethylpiperidin-1-yl)pyrimidin-2-yl)imidazo[1,2-a]pyrazine-6-carboxamide] | < 0.01 |
| N[C@H]1CCCN(c2ccnc(-c3cnc4cnc(C(F)(F)F)cn34)n2)C1 [IV-736] | > 1 |
| CC1CCC(C)N(c2ccnc(-c3cnc4cnc(C(N)=O)cn34)n2)C1 (stereo not shown) [IV-271, 3-(4-(2,5-Dimethylpiperidin-1-yl)pyrimidin-2-yl)imidazo[1,2-a]pyrazine-6-carboxamide] | 0.1 to 1 |
| CN1CCN(c2ccnc(-c3cnc4cnc(C(F)(F)F)cn34)n2)CC1C(N)=O (stereo not shown) [IV-596, 1-Methyl-4-(2-(6-(trifluoromethyl)imidazo[1,2-a]pyrazin-3-yl)pyrimidin-4-yl)piperazine-2-carboxamide] | 0.1 to 1 |
| O=S1(=O)CCN(c2ccnc(-c3cnc4cnc(C(F)F)cn34)n2)CC1 [IV-84, 4-(2-(6-(Difluoromethyl)imidazo[1,2-a]pyrazin-3-yl)pyrimidin-4-yl)thiomorpholine 1,1-dioxide] | 0.1 to 1 |
| NC(=O)c1cn2c(-c3cccc(N4CCCC(CO)C4)n3)cnc2cn1 (stereo not shown) [IV-220, 3-(6-(3-(Hydroxymethyl)piperidin-1-yl)pyridin-2-yl)imidazo[1,2-a]pyrazine-6-carboxamide] | 0.01 to 0.1 |
| O=C1NC[C@@H]2CCN(c3ccnc(-c4cnc5cnc(C(F)(F)F)cn45)n3)C[C@H]12 [IV-515, (3aR,7aR)-5-(2-(6-(Trifluoromethyl)imidazo[1,2-a]pyrazin-3-yl)pyrimidin-4-yl)octahydro-3H-pyrrolo[3,4-a]pyridin-3-one] | 0.1 to 1 |
| CC(=O)N1CCN(c2ccnc(-c3cnc4cnc(C#N)cn34)n2)CC1 [IV-31, 3-(4-(4-Acetylpiperazin-1-yl)pyrimidin-2-yl)imidazo[1,2-a]pyrazine-6-carbonitrile] | 0.1 to 1 |
| NS(=O)(=O)c1ccc(C(=O)N[C@@H]2CCCN(c3ccnc(-c4cnc5cnc(C(F)(F)F)cn45)n3)C2)o1 [IV-710] | 0.1 to 1 |
| O=C(Nc1ccccn1)[C@H]1CCCN(c2ccnc(-c3cnc4cnc(C(F)(F)F)cn34)n2)C1 [IV-740] | > 1 |
| FC(F)(F)c1cn2c(-c3nccc(N4CC5CCOC5C4)n3)cnc2cn1 (stereo not shown) [IV-497, 5-(2-(6-(Trifluoromethyl)imidazo[1,2-a]pyrazin-3-yl)pyrimidin-4-yl)hexahydro-2H-furo[2,3-a]pyrrole] | 0.1 to 1 |
| CS(=N)(=O)CC1CCN(c2ccnc(-c3cnc4cnc(C(F)(F)F)cn34)n2)C1 (stereo not shown) [IV-607, Imino(methyl)((1-(2-(6-(trifluoromethyl)imidazo[1,2-a]pyrazin-3-yl)pyrimidin-4-yl)pyrrolidin-3-yl)methyl)-λ^6-sulfanone] | 0.1 to 1 |
| CS(=O)(=O)N=S1(=O)CCN(c2ccnc(-c3cnc4cnc(C(F)(F)F)cn34)n2)CC1 [IV-727] | > 1 |
| O=C(N[C@H]1CCCN(c2ccnc(-c3cnc4cnc(C(F)(F)F)cn34)n2)C1)c1cccnc1F [IV-734] | > 1 |
| CC(=O)N1CCN(c2ccnc(-c3cnc4cnc(-c5cccc(O)c5)cn34)n2)CC1 [IV-309, 1-(4-(2-(6-(3-Hydroxyphenyl)imidazo[1,2-a]pyrazin-3-yl)pyrimidin-4-yl)piperazin-1-yl)ethan-1-one] | 0.01 to 0.1 |
| Brc1cn2c(-c3nccc(N4CCNC(c5c[nH]cn5)C4)n3)cnc2cn1 (stereo not shown) [IV-348, 3-(4-(3-(1H-Imidazol-4-yl)piperazin-1-yl)pyrimidin-2-yl)-6-bromoimidazo[1,2-a]pyrazine] | 0.01 to 0.1 |
| O=C(Nc1cccnc1)[C@@H]1CCCN(c2ccnc(-c3cnc4cnc(C(F)(F)F)cn34)n2)C1 [IV-738] | > 1 |

Same assay, conditions: compounds of Formula II; 280 μM ATP, 4 nM GCN2 kinase

| Compound | Ki [µM] |
| --- | --- |
| Cc1c(CNS(C)(=O)=O)cccc1-c1cc(-c2cnc3ccc(C(F)F)nn23)ncn1 [II-575, N-[[3-[6-[6-(Difluoromethyl)imidazo[1,2-b]pyridazin-3-yl]pyrimidin-4-yl]-2-methyl-phenyl]methyl]methanesulfonamide] | 0.01 to 1 |
| CS(=O)(=O)NCC1CC(C#N)CN(c2cc(-c3cnc4ccc(C(F)F)nn34)ncn2)C1 (stereo not shown) | 0.01 to 1 |
| CC1C(CNS(C)(=O)=O)N(C(C)(C)C)CCN1c1cc(-c2cnc3ccc(C(F)F)nn23)ncn1 (stereo not shown) [II-559, N-((1-(tert-Butyl)-4-(6-(6-(difluoromethyl)imidazo[1,2-b]pyridazin-3-yl)pyrimidin-4-yl)-3-methylpiperazin-2-yl)methyl)methanesulfonamide] | 0.01 to 1 |
| CC1C(CNS(C)(=O)=O)OCCN1c1cc(-c2cnc3ccc(C(F)F)nn23)ncn1 (single isomer, unassigned) [II-371, N-((4-(6-(6-(Difluoromethyl)imidazo[1,2-b]pyridazin-3-yl)pyrimidin-4-yl)-3-methylmorpholin-2-yl)methyl)methanesulfonamide] | < 0.01 |
| N#CCC1CN(c2cc(-c3cnc4ccc(C(F)(F)F)nn34)ncn2)CCO1 (stereo not shown) [II-513, 2-(4-(6-(6-(Trifluoromethyl)imidazo[1,2-b]pyridazin-3-yl)pyrimidin-4-yl)morpholin-2-yl)acetonitrile] | 0.01 to 1 |
| CC1C(N=S(C)(C)=O)CCCN1c1cc(-c2cnc3ccc(C(F)F)nn23)ncn1 (single isomer, unassigned) [II-582, ((1-(6-(6-(Difluoromethyl)imidazo[1,2-b]pyridazin-3-yl)pyrimidin-4-yl)-2-methylpiperidin-3-yl)imino)dimethyl-λ^6-sulfanone] | > 1 |
| CC(=O)N1CCN(c2cc(-c3cnc4ccc(C(=O)O)nn34)ccn2)CC1 [II-734, 3-(2-(4-acetylpiperazin-1-yl)pyridin-4-yl)imidazo[1,2-b]pyridazine-6-carboxylic acid] | > 1 |
| CC1CC(N=S(C)(=O)C2CC2)CN(c2cc(-c3cnc4ccc(C(F)F)nn34)ncn2)C1 (single isomer, unassigned) [II-644, Cyclopropyl((1-(6-(6-(difluoromethyl)imidazo[1,2-b]pyridazin-3-yl)pyrimidin-4-yl)-5-methylpiperidin-3-yl)imino)(methyl)-λ^6-sulfanone] | 0.01 to 1 |
| CC(=O)N1CCN(c2cc(-c3cnc4ccc(Cl)nn34)ncn2)CC1 [II-590, 1-[4-[6-(6-Chloroimidazo[1,2-b]pyridazin-3-yl)pyrimidin-4-yl]piperazin-1-yl]ethanone] | > 1 |
| CCC1CC(N=S(C)(C)=O)CN(c2cc(-c3cnc4ccc(C(F)F)nn34)ncn2)C1 (single isomer, unassigned) [II-651, ((1-(6-(6-(Difluoromethyl)imidazo[1,2-b]pyridazin-3-yl)pyrimidin-4-yl)-5-ethylpiperidin-3-yl)imino)dimethyl-λ^6-sulfanone] | 0.01 to 1 |
